Results as given in US20230301968A1 (ZEPHAPHARM LTD, priority 2020, published 2023).
Like-named read-outs stand apart in the source and are kept apart here.

What was measured:
in vitro = settings: human, hepatocytes; for half-life at 1 µM: t½
Experimental: (§1) In each assay, the amount of test compound remaining at each time point was analysed by LC-MS/MS.
(§2) The final incubation volume was 500 µL. […] A positive control compound, ethoxycoumarin, for CYP1A2 (as CYP1A2 substrate) was included. […] The reactions were stopped by transferring 50 µL of incubate to 100 µL acetonitrile containing internal standard at the appropriate time points (0, 5, 10, 20, 40 and 60 min). The termination plates were centrifuged at 2500 rpm at 4° C. for 30 min to precipitate the protein.
(§3) From a plot of In peak area ratio (compound peak area/internal standard peak area) against time, the gradient of the line was determined. Subsequently, half-life (t½) and intrinsic clearance (CLint) were calculated using the equations below: […]

[1] = test system: human cryopreserved hepatocytes; assay: Stability in human cryopreserved hepatocytes with or without CYP1A2 inhibitors (assays 1 to 3); settings: for decrease of flubendazole metabolism in the presence of the inhibitor: cryopreserved human hepatocytes, 1 µM flubendazole, over all inhibitor concentrations tested; for class of CYP1A2 inhibitor of flubendazole metabolism: human hepatocytes ex vivo
Experimental: as §1, §2, §3

[2] = humans, cited from earlier work
human liver microsomes = settings: cited from earlier work

hepatocyte CLint at 1 µM (in vitro; CLint) [µL/min/1e6 cells]	half-life at 1 µM (in vitro) [min]	SMILES	decrease of flubendazole metabolism in the presence of the inhibitor [1]	class of CYP1A2 inhibitor of flubendazole metabolism [1]	also measured
25.4	54.5	CCOc1ccc2ccc(=O)oc2c1			
		COCCCC/C(=N\OCCN)c1ccc(C(F)(F)F)cc1 [Fluvoxamine, fluvoxamine]	at least 2.2 fold	strong (inhibits intrinsic clearance (CLint) of flubendazole in human hepatocytes ex vivo by ≥five-fold)	
		Cc1nc2c([nH]1)c(=O)n(C)c(=O)n2Cc1ccco1 [Furafylline, furafylline]	at least 4.2 fold	strong (inhibits intrinsic clearance (CLint) of flubendazole in human hepatocytes ex vivo by ≥five-fold)	increase in elimination half-life of caffeine ([2]; Tarrus et al., 1987): 7-10 fold
		CCC[S+]([O-])c1ccc2[nH]c(NC(=O)OC)nc2c1 (stereo not drawn) [Ricobendazole, albendazole sulfoxide]			turnover in human liver microsomes (human liver microsomes): low turnover
136 ± 8.14	10.2	O=c1ccc2ccc(O)cc2o1 [Umbelliferone, umbelliferone]			CLint ([1]; human, hepatocytes, 1 µM): 131±9.59 µL/min/10^6 cells; t½ ([1]; human, hepatocytes, 1 µM): 10.5 min; hepatocyte CLint at 1 µM (in vitro; intrinsic clearance): 129 ± 2.93 µL/min/1e6 cells
		Cn1c(=O)c2c(ncn2C)n(C)c1=O [caffeine]			elimination half-life ([2]; with furafylline): 50 h; elimination half-life ([2]; without furafylline): 5 to 7 h
